Results published in patent US20220411372A1, “SMALL-MOLECULE INHIBITORS FOR THE B-CATENIN/B-CELL LYMPHOMA 9 PROTEIN-PROTEIN INTERACTION” (H. Lee Moffitt Cancer Center and Research Institute, Inc., priority 2019, published 2022).
Read-outs that look alike come from different tables or passages of the source.

Target: T1, β-catenin/BCL9 PPI (Homo sapiens, UniProt P35222)
T1 construct: Full-length β-catenin (residues 1-781) were cloned into a pET-28b vector; made in house; host or cells: E. coli BL21 DE3 (β-catenin); BCL9 peptide synthesized by InnoPep Inc
T1 sequence (P35222 1-781): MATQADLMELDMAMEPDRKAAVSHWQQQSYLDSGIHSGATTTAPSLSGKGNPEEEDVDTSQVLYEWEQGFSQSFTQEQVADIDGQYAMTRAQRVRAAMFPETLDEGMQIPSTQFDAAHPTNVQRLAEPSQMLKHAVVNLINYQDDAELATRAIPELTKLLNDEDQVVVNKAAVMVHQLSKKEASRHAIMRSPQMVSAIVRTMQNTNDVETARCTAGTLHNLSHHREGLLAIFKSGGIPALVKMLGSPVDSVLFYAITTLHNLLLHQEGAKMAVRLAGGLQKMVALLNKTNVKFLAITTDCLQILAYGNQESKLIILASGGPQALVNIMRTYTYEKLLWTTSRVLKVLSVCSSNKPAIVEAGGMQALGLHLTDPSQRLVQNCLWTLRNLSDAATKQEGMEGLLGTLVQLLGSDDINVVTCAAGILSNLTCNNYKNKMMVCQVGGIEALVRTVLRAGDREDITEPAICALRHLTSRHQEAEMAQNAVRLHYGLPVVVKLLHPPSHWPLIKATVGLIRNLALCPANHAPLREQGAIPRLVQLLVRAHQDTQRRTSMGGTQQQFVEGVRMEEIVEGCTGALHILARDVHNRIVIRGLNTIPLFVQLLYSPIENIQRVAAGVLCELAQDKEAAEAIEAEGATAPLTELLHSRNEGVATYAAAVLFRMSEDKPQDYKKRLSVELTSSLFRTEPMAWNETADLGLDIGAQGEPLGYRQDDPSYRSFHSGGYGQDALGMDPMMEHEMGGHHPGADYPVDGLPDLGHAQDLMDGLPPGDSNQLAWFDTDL
Experiment: AlphaScreen competitive inhibition assay of the β-catenin/BCL9 PPI
Type: binding
Method: AlphaScreen Assays of β-Catenin and BCL9 Interaction. Experiments were performed in white opaque 384-well plates from PerkinElmer (Waltham, Mass.), and the samples were read on a Synergy 2 plate reader (Biotek, Winooski, Vt.) with excitation at 680 nm and emission at 570 nm. The standard AlphaScreen protocol was used with a sensitivity setting of 200. All dilutions were made in 1× assay buffer containing 25 mM Hepes (pH 7.4), 100 mM NaCl, 0.01% Triton X-100 and 0.1% BSA to minimize nonspecific interactions.
For the β-catenin/BCL9 assay, 5 nM biotinylated BCL9 and 40 nM His6-tagged β-catenin were incubated in assay buffer at 4° C. for 30 min. For the β-catenin/E-cadherin assay, 10 nM biotinylated human E-cadherin, and 40 nM His6-tagged human β-catenin were added and incubated in assay buffer at 4° C. for 30 min. Different concentrations of the tested inhibitor were added and incubated in 20 μL assay buffer at 4° C. for another 1 h. All of the assay plates were covered and gently mixed on an orbital shaker. The donor and acceptor beads were then added to the plates to a final concentration of 10 μg/mL in […]. The mixture was incubated for 1 h at 4° C. before detection. The IC50 value was determined by nonlinear least-square analysis of GraphPad Prism 5.0. […] All of the experiments were performed in triplicate and carried out in the presence of 1% DMSO for small-molecule inhibitors. Each compound was assayed at least by two independent experiments. The results were expressed as mean±standard deviation. The inhibitor selectivity for β-catenin/BCL9 over β-catenin/E-canderin interactions was defined as the ratio of the respective Ki value of β-catenin/E-cadherin interactions over that of β-catenin/BCL9 interactions.

[1] = Table 4, left half, inhibitors 44-48, read-out: Ki
[2] = Table 1, inhibitors 1-14, read-out: Ki
[3] = Table 10, inhibitors 99-106, racemic, read-out: Ki ± SD
[4] = Table 2, inhibitors 15-26, read-out: Ki
[5] = Table 5, inhibitors 54-62, read-out: Ki

Compound: CC(C)(Oc1cccc(N2CCC[C@@H](C(=O)N(Cc3ccc(-c4cn[nH]c4)cc3)CC3CC3)C2)c1)C(=O)N1CCNCC1 [Compound 48, (R)-4-(2-(3-(3-((4-(1H-pyrazol-4-yl)benzyl)(cyclopropylmethyl)carbamoyl)piperidin-1-yl)phenoxy)-2-methylpropanoyl)piperazin-1-ium chloride]
- Ki [1]: < 90 µM

Compound: CC(C)c1ccc(CNC(=O)[C@@H]2CCCN(c3cccc(OC(C)(C)C(=O)O)c3)C2)cc1 [Compound 3, (R)-2-(3-(3-((4-isopropylbenzyl)carbamoyl)piperidin-1-yl)phenoxy)-2-methylpropanoic acid]
- Ki [2]: ≤ 50 µM

Compound: CC(C)(Oc1cccc(N2CCC[C@@H](C(=O)N(Cc3ccc(C(C)(C)C)cc3)C3CC3)C2)c1)C(=O)N1CCNCC1 [Compound 28, (R)-4-(2-(3-(3-((4-(tert-butyl)benzyl)(cyclopropyl)carbamoyl)piperidin-1-yl)phenoxy)-2-methylpropanoyl)piperazin-1-ium chloride]
- Ki (Table 3, inhibitors 27-43, read-out: Ki): ≤ 30 µM

Compound: CN(Cc1ccc(-c2cn[nH]c2)cc1)C(=O)[C@@H]1CCCN(c2cccc(OC(C)(C)C(=O)N3CCNCC3)c2)C1 [Compound 45, (R)-4-(2-(3-(3-((4-(1H-pyrazol-4-yl)benzyl)(methyl)carbamoyl)piperidin-1-yl)phenoxy)-2-methylpropanoyl)piperazin-1-ium chloride]
- Ki [1]: < 30 µM

Compound: CC(C)(Oc1cccc(N2CCCC(C(=O)N(Cc3ccc(-c4ccoc4)cc3)C3CC3)C2)c1)C(=O)O (racemic) [Compound 106, 2-(3-(3-(cyclopropyl(4-(furan-3-yl)benzyl)carbamoyl)piperidin-1-yl)phenoxy)-2-methylpropanoic acid]
- Ki [3]: > 90 µM

Compound: CC(C)(Oc1cccc(N2CCCC(C(=O)N(Cc3ccc(-c4ccn[nH]4)cc3)C3CC3)C2)c1)C(=O)O (racemic) [Compound 101, 2-(3-(3-((4-(1H-pyrazol-5-yl)benzyl)(cyclopropyl)carbamoyl)piperidin-1-yl)phenoxy)-2-methylpropanoic acid]
- Ki [3]: ≤ 90 µM

Compound: CC(C)c1ccc(COC(=O)[C@H]2CCCN(c3cccc(OC(C)(C)C(=O)N4CCNCC4)c3)C2)cc1 [Compound 16, (S)-4-(2-(3-(3-(((4-isopropylbenzyl)oxy)carbonyl)piperidin-1-yl)phenoxy)-2-methylpropanoyl)piperazin-1-ium chloride]
- Ki [4]: ≤ 10 µM

Compound: CC(C)(Oc1cccc(N2CCC[C@@H](C(=O)N(Cc3ccc(-c4cn[nH]c4)cc3)C3CC3)C2)c1)C(=O)N1C[C@H]2CNC[C@H]2C1 [Compound 58, (3aR,6aS)-5-(2-(3-((R)-3-((4-(1H-pyrazol-4-yl)benzyl)(cyclopropyl)carbamoyl)piperidin-1-yl)phenoxy)-2-methylpropanoyl)octahydropyrrolo[3,4-c]pyrrol-2-ium chloride]
- Ki [5]: < 30 µM

Compound: CC(C)(Oc1cccc(N2CCCC(C(=O)N(Cc3ccc(-c4ccco4)cc3)C3CC3)C2)c1)C(=O)O (racemic) [Compound 105, 2-(3-(3-(cyclopropyl(4-(furan-2-yl)benzyl)carbamoyl)piperidin-1-yl)phenoxy)-2-methylpropanoic acid]
- Ki [3]: ≤ 90 µM

Compound: CC(C)c1ccc(CN(C(=O)[C@H]2CCCN(c3cccc(OC(C)(C)C(=O)N4CCNCC4)c3)C2)C2CC2)cc1 [Compound 26, (S)-4-(2-(3-(3-(cyclopropyl(4-isopropylbenzyl)carbamoyl)piperidin-1-yl)phenoxy)-2-methylpropanoyl)piperazin-1-ium chloride]
- Ki [4]: ≤ 10 µM

Compound: CC(C)c1ccc(COC(=O)[C@@H]2CCCN(c3cccc(OC(C)(C)C(=O)O)c3)C2)cc1 [Compound 1, (R)-2-(3-(3-(((4-isopropylbenzyl)oxy)carbonyl)piperidin-1-yl)phenoxy)-2-methylpropanoic acid]
- Ki [2]: > 90 µM

Compound: CC(C)c1ccc(CNC(=O)[C@@H]2CCCN(c3cccc(OC(C)(C)C(=O)N4CCNCC4)c3)C2)cc1 [Compound 17, (R)-4-(2-(3-(3-((4-isopropylbenzyl)carbamoyl)piperidin-1-yl)phenoxy)-2-methylpropanoyl)piperazin-1-ium chloride]
- Ki [4]: ≤ 10 µM

Compound: CC(C)(Oc1cccc(N2CCC[C@@H](C(=O)N(CCN)Cc3ccc(-c4cn[nH]c4)cc3)C2)c1)C(=O)N1CCNCC1 [Compound 53, (R)-4-(2-(3-(3-((4-(1H-pyrazol-4-yl)benzyl)(2-ammonioethyl)carbamoyl)piperidin-1-yl)phenoxy)-2-methylpropanoyl)piperazin-1-ium chloride]
- Ki (Table 4, right half, inhibitors 49-53, read-out: Ki ± SD): < 90 µM

Compound: CC(C)c1ccc(CN(C(=O)[C@H]2CCCN(c3cccc(OC(C)(C)C(=O)N4CCNCC4)c3)C2)C(C)C)cc1 [Compound 24, (S)-4-(2-(3-(3-(isopropyl(4-isopropylbenzyl)carbamoyl)piperidin-1-yl)phenoxy)-2-methylpropanoyl)piperazin-1-ium chloride]
- Ki [4]: ≤ 10 µM

Compound: Cn1cc(-c2ccc(CN(C(=O)C3CCCN(c4cccc(OC(C)(C)C(=O)O)c4)C3)C3CC3)cc2)cn1 (racemic) [Compound 100, 2-(3-(3-(cyclopropyl(4-(1-methyl-1H-pyrazol-4-yl)benzyl)carbamoyl)piperidin-1-yl)phenoxy)-2-methylpropanoic acid]
- Ki [3]: > 90 µM

Compound: CC(C)c1ccc(CNC(=O)[C@H]2CCCN(c3cccc(OC(C)(C)C(=O)N4CCNCC4)c3)C2)cc1 [Compound 18, (S)-4-(2-(3-(3-((4-isopropylbenzyl)carbamoyl)piperidin-1-yl)phenoxy)-2-methylpropanoyl)piperazin-1-ium chloride]
- Ki [4]: ≤ 30 µM

Compound: CC(C)(Oc1cccc(N2CCC[C@@H](C(=O)N(Cc3ccc(-c4cn[nH]c4)cc3)C3CC3)C2)c1)C(=O)N1CCCCC1 [Compound 57, (R)-N-(4-(1H-pyrazol-4-yl)benzyl)-N-cyclopropyl-1-(3-((2-methyl-1-oxo-1-(piperidin-1-yl)propan-2-yl)oxy)phenyl)piperidine-3-carboxamide]
- Ki [5]: > 90 µM

Compound: CC(C)(Oc1cccc(N2CCC[C@@H](C(=O)N3CCc4cc(-c5cn[nH]c5)ccc4C3)C2)c1)C(=O)N1CCNCC1 [Compound 92, (R)-4-(2-(3-(3-(6-(1H-pyrazol-4-yl)-1,2,3,4-tetrahydroisoquinoline-2-carbonyl)piperidin-1-yl)phenoxy)-2-methylpropanoyl)piperazin-1-ium chloride]
- Ki (Table 8, inhibitors 82-92, read-out: Ki): < 90 µM

Compound: CC(C)c1ccc(CN(C(=O)[C@@H]2CCCN(c3cccc(OC(C)(C)C(=O)O)c3)C2)C(C)C)cc1 [Compound 9, (R)-2-(3-(3-(isopropyl(4-isopropylbenzyl)carbamoyl)piperidin-1-yl)phenoxy)-2-methylpropanoic acid]
- Ki [2]: > 90 µM

Compound: CC(C)Oc1cc(-c2cn[nH]c2)ccc1CN(C(=O)[C@@H]1CCCN(c2cccc(OC(C)(C)C(=O)N3CCNCC3)c2)C1)C1CC1 [Compound 110, (R)-4-(2-(3-(3-(Cyclopropyl(2-isopropoxy-4-(1H-pyrazol-4-yl)benzyl)carbamoyl)piperidin-1-yl)phenoxy)-2-methylpropanoyl)piperazin-1-ium chloride]
- Ki (Table 12, inhibitors 109-112, read-out: Ki): ≤ 30 µM

Compound: CC(C)c1ccc(CN(C(=O)[C@@H]2CCCN(c3cccc(OC(C)(C)C(=O)O)c3)C2)C2CC2)cc1 [Compound 11, (R)-2-(3-(3-(cyclopropyl(4-isopropylbenzyl)carbamoyl)piperidin-1-yl)phenoxy)-2-methylpropanoic acid]
- Ki [2]: ≤ 50 µM

Compound: CC(C)c1ccc(CN(C)C(=O)[C@@H]2CCCN(c3cccc(OC(C)(C)C(=O)O)c3)C2)cc1 [Compound 5, (R)-2-(3-(3-((4-isopropylbenzyl)(methyl)carbamoyl)piperidin-1-yl)phenoxy)-2-methylpropanoic acid]
- Ki [2]: < 50 µM
